Results: PubChem BioAssay AID2060884 (Molecular Pharmacology Branch, DTP, NCI, 2025)
Values joined by “and” are separate entries in the source; they are usually repeats but may differ in a detail not shown here. Equal values may be shown once.

Test system: NCI-H929 complex spheroids, viability % test/control
Test: Anticancer human tumor NCI-H929 cell line growth inhibition [RAS];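 further: compound exposure lasted seven days before viability was read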;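 on viability, T/C: 100% = DMSO vehicle control viability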
Conditions: for viability, T/C: stronger effect = lower value; active means viability on the fitted dose curve at most 10% of control; inactive means the rest
Summary of the method: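 Agents were tested in combination matrices in half-log decrements from a top concentration at or near clinical Cmax (10 microM if undetermined). Targets were multi-cell spheroids of tumour lines plus HUVEC and MSC stromal cells.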

[1] = curve of first compound, second compound 0.000949 µM
[2] = curve of first compound, second compound 0.003 µM
[3] = curve of first compound, second compound 0.00949 µM
[4] = curve of first compound, second compound 0.03 µM
[5] = curve of first compound, second compound 0.0949 µM
[6] = curve of first compound, second compound 0.3 µM
[7] = second compound 0.000949 µM, first compound 0.0316 µM
[8] = second compound 0.000949 µM, first compound 0.1 µM
[9] = second compound 0.000949 µM, first compound 0.316 µM
[10] = second compound 0.000949 µM, first compound 1 µM
[11] = second compound 0.000949 µM, first compound 3.16 µM
[12] = second compound 0.000949 µM, first compound 10 µM
[13] = second compound 0.003 µM, first compound 0.0316 µM
[14] = second compound 0.003 µM, first compound 0.1 µM
[15] = second compound 0.003 µM, first compound 0.316 µM
[16] = second compound 0.003 µM, first compound 1 µM
[17] = second compound 0.003 µM, first compound 3.16 µM
[18] = second compound 0.003 µM, first compound 10 µM
[19] = second compound 0.00949 µM, first compound 0.0316 µM
[20] = second compound 0.00949 µM, first compound 0.1 µM
[21] = second compound 0.00949 µM, first compound 0.316 µM
[22] = second compound 0.00949 µM, first compound 1 µM
[23] = second compound 0.00949 µM, first compound 3.16 µM
[24] = second compound 0.00949 µM, first compound 10 µM
[25] = second compound 0.03 µM, first compound 0.0316 µM
[26] = second compound 0.03 µM, first compound 0.1 µM
[27] = second compound 0.03 µM, first compound 0.316 µM
[28] = second compound 0.03 µM, first compound 1 µM
[29] = second compound 0.03 µM, first compound 3.16 µM
[30] = second compound 0.03 µM, first compound 10 µM
[31] = second compound 0.0949 µM, first compound 0.0316 µM
[32] = second compound 0.0949 µM, first compound 0.1 µM
[33] = second compound 0.0949 µM, first compound 0.316 µM
[34] = second compound 0.0949 µM, first compound 1 µM
[35] = second compound 0.0949 µM, first compound 3.16 µM
[36] = second compound 0.0949 µM, first compound 10 µM
[37] = second compound 0.3 µM, first compound 0.0316 µM
[38] = second compound 0.3 µM, first compound 0.1 µM
[39] = second compound 0.3 µM, first compound 0.316 µM
[40] = second compound 0.3 µM, first compound 1 µM
[41] = second compound 0.3 µM, first compound 3.16 µM
[42] = second compound 0.3 µM, first compound 10 µM

C[C@@H](NC(=O)c1ncnc(N)c1Cl)c1ncc(C(=O)Nc2cc(C(F)(F)F)c(Cl)cn2)s1 + CCn1c(-c2cc(N3CCN(C)CC3)cnc2C(C)OC)c2c3cc(ccc31)-c1csc(n1)CC(NC(=O)C1CC1C)C(=O)N1CCCC(N1)C(=O)OCC(C)(C)C2
> 10 µM: IC50 [1] | IC50 [2] | IC50 [3] | IC50 [4]
< 0.0316 µM: IC50 [5] | IC50 [6]
inactive: viability, T/C [7] 104% | viability, T/C [8] 100% | viability, T/C [9] 102% | viability, T/C [10] 98.9% | viability, T/C [11] 104% | viability, T/C [12] 112% | viability, T/C [13] 95.8% | viability, T/C [14] 99.7% | viability, T/C [15] 103% | viability, T/C [16] 101% | viability, T/C [17] 105% | viability, T/C [18] 114% | viability, T/C [19] 91.8% | viability, T/C [20] 104% | viability, T/C [21] 107% | viability, T/C [22] 111% | viability, T/C [23] 111% | viability, T/C [24] 115% | viability, T/C [25] 114% | viability, T/C [26] 121% | viability, T/C [27] 120% | viability, T/C [28] 119% | viability, T/C [29] 115% | viability, T/C [30] 89.2% | viability, T/C [31] 19.9% | viability, T/C [32] 28.3% | viability, T/C [33] 35.9% | viability, T/C [34] 43.4% | viability, T/C [35] 45.6% | viability, T/C [36] 18.5% | viability, T/C [37] 6.79% | viability, T/C [38] 9.47% | viability, T/C [39] 9.99% | viability, T/C [40] 13.3% | viability, T/C [41] 14.1% | viability, T/C [42] 8.3%

CCN1CCN(Cc2ccc(Nc3ncc(F)c(-c4cc(F)c5nc(C)n(C(C)C)c5c4)n3)nc2)CC1 + C#Cc1c(F)ccc2cc(O)cc(-c3ncc4c(N5CC6CCC(C5)N6)nc(OCC56CCCN5CC(F)C6)nc4c3F)c12
> 1 µM: IC50 (curve of first compound, second compound 0.0316 µM) | IC50 (curve of first compound, second compound 0.1 µM) | IC50 (curve of first compound, second compound 0.316 µM) | IC50 (curve of first compound, second compound 1 µM) | IC50 (curve of first compound, second compound 3.16 µM) | IC50 (curve of first compound, second compound 10 µM)
inactive: viability, T/C (second compound 0.0316 µM, first compound 0.00316 µM) 101% | viability, T/C (second compound 0.0316 µM, first compound 0.01 µM) 102% | viability, T/C (second compound 0.0316 µM, first compound 0.0316 µM) 108% | viability, T/C (second compound 0.0316 µM, first compound 0.1 µM) 106% | viability, T/C (second compound 0.0316 µM, first compound 0.316 µM) 120% | viability, T/C (second compound 0.0316 µM, first compound 1 µM) 107% | viability, T/C (second compound 0.1 µM, first compound 0.00316 µM) 92.2% | viability, T/C (second compound 0.1 µM, first compound 0.01 µM) 99.1% | viability, T/C (second compound 0.1 µM, first compound 0.0316 µM) 103% | viability, T/C (second compound 0.1 µM, first compound 0.1 µM) 107% | viability, T/C (second compound 0.1 µM, first compound 0.316 µM) 118% | viability, T/C (second compound 0.1 µM, first compound 1 µM) 110% | viability, T/C (second compound 0.316 µM, first compound 0.00316 µM) 96.6% | viability, T/C (second compound 0.316 µM, first compound 0.01 µM) 100% | viability, T/C (second compound 0.316 µM, first compound 0.0316 µM) 103% | viability, T/C (second compound 0.316 µM, first compound 0.1 µM) 113% | viability, T/C (second compound 0.316 µM, first compound 0.316 µM) 120% | viability, T/C (second compound 0.316 µM, first compound 1 µM) 115% | viability, T/C (second compound 1 µM, first compound 0.00316 µM) 93.2% | viability, T/C (second compound 1 µM, first compound 0.01 µM) 102% | viability, T/C (second compound 1 µM, first compound 0.0316 µM) 109% | viability, T/C (second compound 1 µM, first compound 0.1 µM) 113% | viability, T/C (second compound 1 µM, first compound 0.316 µM) 117% | viability, T/C (second compound 1 µM, first compound 1 µM) 112% | viability, T/C (second compound 3.16 µM, first compound 0.00316 µM) 97.8% | viability, T/C (second compound 3.16 µM, first compound 0.01 µM) 100% | viability, T/C (second compound 3.16 µM, first compound 0.0316 µM) 104% | viability, T/C (second compound 3.16 µM, first compound 0.1 µM) 112% | viability, T/C (second compound 3.16 µM, first compound 0.316 µM) 120% | viability, T/C (second compound 3.16 µM, first compound 1 µM) 115% | viability, T/C (second compound 10 µM, first compound 0.00316 µM) 98.5% | viability, T/C (second compound 10 µM, first compound 0.01 µM) 100% | viability, T/C (second compound 10 µM, first compound 0.0316 µM) 99.2% | viability, T/C (second compound 10 µM, first compound 0.1 µM) 109% | viability, T/C (second compound 10 µM, first compound 0.316 µM) 118% | viability, T/C (second compound 10 µM, first compound 1 µM) 57.3%

CC(Nc1ccc2c(c1)OCCn1cc(N3C(=O)OCC3C(F)F)nc1-2)C(N)=O (stereo not drawn) + CCn1c(-c2cccnc2C(C)OC)c2c3cc(ccc31)N1CCOC(CC(NC(=O)C(C(C)C)N(C)C(=O)C3(F)CCN(C(=O)C#CC(C)(C)N(C)C)CC3)C(=O)N3CCCC(N3)C(=O)OCC(C)(C)C2)C1
6.54 µM: IC50 [2]
inactive: viability, T/C [7] 103% | viability, T/C [8] 94.3% | viability, T/C [9] 96.2% | viability, T/C [10] 87.2% | viability, T/C [11] 83.5% | viability, T/C [12] 30.4% | viability, T/C [13] 99.5% | viability, T/C [14] 96.1% | viability, T/C [15] 94.5% | viability, T/C [16] 90.5% | viability, T/C [17] 79.8% | viability, T/C [18] 32.7% | viability, T/C [19] 98.7% | viability, T/C [20] 97.1% | viability, T/C [21] 96.5% | viability, T/C [22] 92% | viability, T/C [23] 85.3% | viability, T/C [24] 21.6% | viability, T/C [25] 94.1% | viability, T/C [26] 96.6% | viability, T/C [27] 96.5% | viability, T/C [28] 91.8% | viability, T/C [29] 83.1% | viability, T/C [30] 22.9% | viability, T/C [31] 96.9% | viability, T/C [32] 98.1% | viability, T/C [33] 94.5% | viability, T/C [34] 91.1% | viability, T/C [35] 80.2% | viability, T/C [36] 17% | viability, T/C [37] 101% | viability, T/C [38] 101% | viability, T/C [39] 97.2% | viability, T/C [40] 86% | viability, T/C [41] 65.6% | viability, T/C [42] 13.2%
5.44 µM: IC50 [5]
5.96 µM: IC50 [3] | IC50 [4]
4.4 µM: IC50 [6]
6.45 µM: IC50 [1]

CCc1c2c(nc3ccc(O)cc13)-c1cc3c(c(=O)n1C2)COC(=O)[C@]3(O)CC
active: viability, T/C (compound 0.00949 µM) 1.38% [middle of 4 runs] | viability, T/C (compound 0.03 µM) 1.43% [middle of 4 runs] | viability, T/C (compound 0.0949 µM) 1.87% [middle of 4 runs] | viability, T/C (compound 0.3 µM) 1.15% [middle of 4 runs]
inactive: viability, T/C (compound 0.000949 µM) 110% and 80.3% and 104% (2×)
15.8% [middle of 4 runs]: viability, T/C (compound 0.003 µM)
1.97 nM [middle of 4 runs]: IC50 (curve of compound)
